“And” between values parts separate entries of the source, which are not always exact repeats. Equal entries are not always repeated.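 Five concentrations, 48 hours, 96-well plates. GI50: concentration for 50% inhibition of growth. TGI is the concentration that stops growth completely.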
Key:
Test in all cases: NCI tumour cell line growth inhibition, 48 h
LXFL 529 NSCLC = system: LXFL 529 NSCLC
SK-MEL-2 melanoma = system: SK-MEL-2 melanoma
NCI-H460 lung = system: NCI-H460 lung
HOP-18 NSCLC = system: HOP-18 NSCLC
SF-539 CNS = system: SF-539 CNS
SR leukemia = system: SR leukemia
HCT-15 colon = system: HCT-15 colon
SN12C renal = system: SN12C renal
SNB-75 CNS = system: SNB-75 CNS
DU-145 prostate = system: DU-145 prostate

Row | Compound | TGI (LXFL 529 NSCLC) | TGI (SK-MEL-2 melanoma) | TGI (NCI-H460 lung) | TGI (HOP-18 NSCLC) | TGI (SF-539 CNS) | TGI (SR leukemia) | TGI (HCT-15 colon) | GI50 (SK-MEL-2 melanoma) | GI50 (NCI-H460 lung) | GI50 (HOP-18 NSCLC) | GI50 (SF-539 CNS) | GI50 (SN12C renal) | TGI (SN12C renal) | GI50 (SNB-75 CNS) | TGI (SNB-75 CNS) | GI50 (HCT-15 colon) | GI50 (DU-145 prostate) | TGI (DU-145 prostate) | GI50 (SR leukemia)
1 | Cc1ccc(NC(=O)CC/C(CC(=O)C(C)(C)C)=N\Nc2ccc([N+](=O)[O-])cc2[N+](=O)[O-])cc1C | > 100 µM | > 100 µM | > 100 µM | > 100 µM | > 100 µM | > 100 µM | > 100 µM | – | – | – | – | – | – | – | – | – | – | – | –
2 | COc1ccc(/C=C\c2cc(OC)c(OC)c(OC)c2)c(O)c1O | 12.8 µM | 33.3 µM and 7.62 µM | 9.22 µM and 4.42 µM | 185 µM | 0.0821 µM and 0.2 µM | – | > 57.5 µM and 8.27 µM | 0.0705 µM | 0.106 µM | 109 µM | < 0.0264 µM and 0.05 µM | 0.296 µM | 25.9 µM and 28.4 µM | 2.36 µM | 20.7 µM and 48.2 µM | 0.0628 µM and 0.0643 µM | – | – | –
3 | N#Cc1cc(NC(=O)c2ccccc2)c(=O)n2c1[nH]c1ccccc12 | > 100 µM | 89.8 µM | > 100 µM | > 100 µM | 84.4 µM | – | > 100 µM | – | – | – | – | – | > 100 µM | – | 68.3 µM | – | – | – | –
4 | O=C1C2ON3c4ccccc4C(=O)C3(c3ccccc3)C2C(=O)N1c1ccccc1 (stereo not given) | > 100 µM | – | – | > 100 µM | > 100 µM | > 100 µM | > 100 µM | – | – | – | – | – | > 100 µM | – | > 100 µM | – | – | – | –
5 | Cc1c(C2Cc3ccccc3N2)c2ccccc2n1C (stereo not given) | > 100 µM | > 100 µM | > 100 µM | – | > 100 µM | > 100 µM | > 100 µM | – | – | – | – | – | > 100 µM | – | > 100 µM | – | – | – | –
6 | CCOC(=O)C1SC(=Nc2ccc(Cl)cc2C)N=C1C (stereo not given) | 45.6 µM | 35.8 µM | 54.2 µM | > 100 µM | 34.5 µM | – | 37.1 µM | – | – | – | – | – | 41.4 µM | – | 69.9 µM | – | – | – | –
7 | COCOCC[C@@H]1CC=CC(NC(=O)OCc2ccccc2)C1/C=C/C(=O)CCC1OCCO1 (stereo not given in full) | 73 µM | > 76.5 µM | > 100 µM | > 100 µM | > 63 µM | 23.6 µM | 32.2 µM | – | – | – | – | – | > 68.5 µM | – | > 90 µM | – | – | – | –
8 | CN(C)CCNC(=O)c1cccc2ncc(-c3ccccc3)nc12 | 53.7 µM | 27.9 µM | 19.6 µM | > 64.3 µM | 16.8 µM | 6.95 µM | 25.2 µM | – | – | – | – | – | 42.2 µM | – | 32.9 µM | – | – | – | –
9 | O=C(O)CCSC(=S)Nc1cccc(F)c1 | > 100 µM | – | > 100 µM | > 100 µM | > 100 µM | > 100 µM | > 100 µM | – | – | – | – | – | > 100 µM | – | > 100 µM | – | – | – | –
10 | C/C(CCn1[nH]c(=O)ccc1=O)=N\Nc1ccc([N+](=O)[O-])cc1[N+](=O)[O-] | > 100 µM | > 100 µM | > 100 µM | > 100 µM | > 100 µM | > 100 µM | > 100 µM | – | – | – | – | – | > 100 µM | – | > 100 µM | – | – | – | –
11 | CC(=N)N(C)O | > 100 µM | > 100 µM | > 100 µM | > 100 µM | > 100 µM | 68.4 µM | 42.9 µM | – | – | – | – | – | > 100 µM | – | > 100 µM | – | – | – | –
12 | COC(=O)C(C(=O)C(=O)Nc1ccc(OC)cc1[N+](=O)[O-])c1nc2cc(C)c(C)cc2[nH]c1=O (stereo not given) | > 100 µM | – | > 100 µM | > 100 µM | > 100 µM | > 100 µM | > 100 µM | – | – | – | – | – | > 100 µM | – | > 100 µM | – | – | – | –
13 | CC1=C2[C@H](c3ccccc3)C3C=CC2(c2ccccc23)N(C(=O)C(c2ccccc2)c2ccccc2)C1=O (stereo not given in full) | > 100 µM | – | > 100 µM | > 100 µM | > 100 µM | > 100 µM | > 100 µM | – | – | – | – | – | > 100 µM | – | > 100 µM | – | – | – | –
14 | Cc1cc(C)nc(NS(=O)(=O)c2ccc(NC(=O)c3ccc(Cl)c4c(Nc5ccc(S(=O)(=O)N=C(N)N)cc5)c5ccccc5nc34)cc2)n1 | > 100 µM | – | – | > 100 µM | > 100 µM | – | – | – | – | – | – | – | 68.7 µM | – | > 100 µM | – | – | – | –
15 | C=C1C(=O)OC2C1C(OC(=O)/C(C)=C\C)CC1(CO1)C1C(O)C=C(C)C21O (stereo not given) | 3.42 µM | 12.5 µM | 29.4 µM | 23.3 µM | 8.06 µM | 24.2 µM | 11 µM | – | – | – | – | – | 14.5 µM | – | 29.2 µM | – | – | – | –
16 | O=C(NNC(=S)Nc1ccccc1)c1ccccn1 | – | > 100 µM | > 100 µM | – | 20.8 µM | > 100 µM | > 100 µM | 9.74 µM | 1.06 µM | – | 2.43 µM | 2.99 µM | > 100 µM | 5.97 µM | > 100 µM | 1.13 µM | 3.8 µM | > 100 µM | 1.63 µM
17 | CCOC(=O)c1c2cccccc2n2c(=O)cc(C)nc12 | > 100 µM | > 100 µM | > 100 µM | – | > 100 µM | > 100 µM | > 100 µM | – | – | – | – | – | > 100 µM | – | – | – | – | – | –
18 | CCCCCCN(C)Cc1ccc(OCCOc2ccc(CN(C)CCCCCC)cc2)cc1 | – | 3.08 µM | 2.99 µM | – | 2.92 µM | 11.6 µM | 2.83 µM | 1.61 µM | 1.35 µM | – | 1.37 µM | 1.35 µM | 3.08 µM | 1.2 µM | 2.57 µM | 0.984 µM | 2.57 µM | 10.5 µM | 1.04 µM
19 | COc1cc2ncn(-c3cc(OCc4ccccc4C(F)(F)F)c(C(C)=O)s3)c2cc1OC | – | > 25 µM | > 25 µM | – | > 25 µM | > 25 µM | > 25 µM | > 25 µM | > 25 µM | – | > 25 µM | > 21.7 µM | > 25 µM | 19 µM | > 25 µM | > 25 µM | > 25 µM | > 25 µM | > 25 µM
20 | Cc1nnc(-c2ccc(C)c(-c3ccc(C(=O)NCc4ccc(Cl)cc4)cc3)c2)o1 | – | > 25 µM | > 25 µM | – | > 25 µM | > 25 µM | > 25 µM | 12.7 µM | 11.9 µM | – | > 22.7 µM | > 18 µM | > 25 µM | 7.88 µM | > 25 µM | 11.7 µM | 16.2 µM | > 25 µM | 11.9 µM
21 | COc1ccc(/C=c2/sc3n(c2=O)NC(c2ccc(Cl)cc2)NN=3)cc1 (stereo not given) | > 100 µM | > 100 µM | > 100 µM | – | > 100 µM | > 100 µM | – | – | – | – | – | – | > 100 µM | – | 78.1 µM | – | – | – | –

Source: PubChem BioAssay (NCI)
